Test results reported in paper PMC11054638, “Transport of Non-Steroidal Anti-Inflammatory Drugs across an Oral Mucosa Epithelium In Vitro Model” (Pharmaceutics, 2024).

How the values were obtained:
[1] = parameters: method as in PMID 15157608; conditions: cited from earlier work
MRP4 (ABCC4) = conditions: cited from earlier work
[2] = test system: oral mucosa epithelium in vitro model based on human cell line TR146; experiment: Transport study across oral mucosa Transwell model, apical to basolateral, 240 min
Experimental: (§1) As soon as cells reached confluency, cultivation was switched from submerged to airlift and 1% Human Keratinocytes Growth Supplements (HKGS, Gibco, Thermofisher, Vienna, Austria, S0015) was added to the cultivation media on the basolateral compartment. Media were changed every 2–3 days until the day of experiment on day 29. Cells from passage 14–36 were used for experiments. Transepithelial electric resistance (TEER) was measured on day of experiment, as described in detail previously.
(§2) Solutions were diluted to 10 µM (carboxyfluorescein) or 100 µM in DMEM on day of experiments.
(§3) First, TEER was measured in cultivation media on the day of experiment. Afterwards, cells and blanks were washed twice with DMEM on the apical (300 µL) and basolateral (900 µL) compartments and selected cells and blanks were treated with DMEM with or without 100 µM probenecid or verapamil on the apical and basolateral side at 37 °C for 30 min. […] To cells which were pre-incubated with probenecid or verapamil, 100 µM probenecid or verapamil was applied apically as well. DMSO content was adapted for cells with no inhibitors, and DMSO and dd-H2O content was adjusted in the basolateral compartment as well in order to apply the same vehicle concentrations on the apical and basolateral compartment. […] Subsequently, duplicates of apical sample were collected, and samples were frozen at −80 °C until further analysis with High-Performance Liquid Chromatography (HPLC).
(§4) Peaks were quantified using the software Chromeleon Version 7.2.6, and corresponding mili absorbance unit × time [mAU × min] values were used for data analysis.
(§5) Mean values of relative fluorescence unit (RFU) or detected area [mAU × min] were used for calculation. For the first timepoint, the clearance [µL] for the detected area was calculated as shown in the formula below (1a), with Abasot1 as the measured area [mAU × min] at the first time point of the basolateral sample, Vbaso as the basolateral volume [µL] and Astock as the area measured for the applied stock solution. […] Clearance [µL] for carboxyfluorescein was calculated with the same formulas using RFU. (1a) Clearance=Abasot1×Vbaso/AStock (1b) Clearancetn=Abasotn×Vbaso/AStock−∑(Abasotn−1 ×3− Abasot1 ×3)
(§6) Cleared volume [µL] was calculated by plotting the sum of clearance at all time points over time [min]. The resulting slope PS [µL/min] was calculated inversely. For calculation of the PScell, the inverse PS blanks were subtracted, as shown below in Formula (2). (2) 1/PScell=1/PSall−1/PSblank
(§7) The final permeability coefficient is calculated by dividing the inverse PScell by the area of the ThinCerts (0.336 cm^2) and multiplying by a conversion factor to give the permeability coefficient as µm/min.

[3] = as above; conditions: human, Piroxicam study, mean ± SD
Experimental: as §1, §2, §3, §4, §5, §6, §7

COX-2 = test system: COX-2; parameters: method as in PMID 16678543; conditions: 48 h post-surgery, compared to the placebo group ref 62; cited from earlier work
ECV304 cell monolayers = conditions: cited from earlier work
TR146 cell layers [4] = experiment: Carboxyfluorescein permeability assay (2 h) after 48 h inflammation treatment; assay type: in vitro ADME, human
Experimental: The resulting slope PS [µL/min] was calculated inversely. […] (2) 1/PScell=1/PSall−1/PSblank
ThinCerts® were seeded with cells as described above. Stock solutions of tumour necrosis factor α (TNF-α, Sigma-Alrich, H8916, 10 µg), Interleukin-1ß (IL-1ß, PeproTech, 200-01B, 2 µg) and Interferon-γ (IFN-γ, PeproTech, Vienna, Austria, 300-02, 20 µg) were prepared with Dulbecco’s Phosphate Buffered Saline (DPBS, Thermo-Fisher Scientific, Vienna, Austria, 14190094) containing 0.1% bovine serum albumin (BSA, Roth, Graz, Austria, 8076.2) at a concentration of 10 µg/mL and stored at −20 °C until usage. Three days before the experiments, cell layers and blanks were washed twice on the basolateral compartment with 900 µL cultivation media (DMEM supplemented with 10% Fetal Calf Serum and 1% Penicillin/Streptomycin) to remove anti-inflammatory hydrocortisone residues (a component of media supplement HKGS) and were further cultivated in cultivation media.
Prior to treating cells with prepared DMEM solutions, TEER was measured in cultivation media DMEM supplemented with 1% Penicillin/Streptomycin and 10% Fetal Calf Serum. Subsequently, cell layers and blanks were washed with DMEM (without supplements) twice on the apical and basolateral compartment, followed by TEER measurements in DMEM. Media of cells were replaced with previously prepared DMEM solutions. Control media was applied on the blanks. After 48 h treatment at 37 °C, 5% CO2 and 95% humidity TEER was measured. Subsequently, 10 µM carboxyfluorescein was added to the apical DMEM solutions and incubated in the incubator at 37 °C for 2 h. Media were immediately collected and measured for the RFU content using the EnSpire as described above. Afterwards, media were stored at −20 °C until further usage. Two cell-grown ThinCerts^TM of each treatment were pooled as one sample with 350 µL lysis buffer supplemented with 1% ß-mercaptoethanol and stored at −80 °C for RNA isolation.

TR146 cell layers [5] = conditions: human, not told, 4 h

Compound: C[C@]12CCC(=O)C=C1CC[C@@H]1[C@@H]2[C@@H](O)C[C@@]2(C)[C@H]1CC[C@]2(O)C(=O)CO [hydrocortisone]
- biological half-life [1]: 8–12 h

Compound: CN1C(C(=O)Nc2ccccn2)=C(O)c2ccccc2S1(=O)=O [piroxicam]
- inhibitory effect on MRP4 function (MRP4 (ABCC4)): weaker in comparison to ibuprofen
- PE (permeability of cell + blank) ([2]; Piroxicam study, w/o Inhibitor, mean ± SD): 2.44 ± 0.76 µm/min
- Permeability coefficient without inflammation and inhibitor ([2]; Table S3, mean ± SD): 4.86 ± 2.41 µm/min
- increase of permeability coefficient with probenecid compared to no inhibitor ([2]; human, 240 min, 100 µM): 1.19 fold
- increase of permeability coefficient with verapamil compared to no inhibitor ([2]; human, 240 min, 100 µM): 1.23 fold
- cumulated concentration of NSAID in the basolateral compartment ([2]; human, 4 h, 100 µM): 0.055 ± 0.016 nmol/mm^2
- permeability coefficient ([2]; with 100 µM probenecid, mean ± SEM): 5.81 ± 0.61 µm/min
- permeability coefficient ([2]; with 100 µM verapamil, mean ± SEM): 6.00 ± 0.70 µm/min
- permeability coefficient ([2]; without inhibitor, 100 µM apical (CF 10 µM), mean ± SEM): 4.86 ± 0.84 µm/min
- Papp A→B at 240 min ([3]; PC (permeability of cell), w/o Inhibitor): 8.1 ×10⁻⁶ cm/s
- Papp A→B at 240 min ([3]; with probenecid 100 µM, PC (permeability of cell), Probenecid): 9.68 ×10⁻⁶ cm/s
- Papp A→B at 240 min ([3]; with probenecid 100 µM, PE (permeability of cell + blank), Probenecid): 4.52 ×10⁻⁶ cm/s
- Papp A→B at 240 min ([3]; with verapamil 100 µM, PC (permeability of cell), Verapamil): 10 ×10⁻⁶ cm/s
- Papp A→B at 240 min ([3]; with verapamil 100 µM, PE (permeability of cell + blank), Verapamil): 5.12 ×10⁻⁶ cm/s

Compound: CS(=O)(=O)c1ccc(C2=C(c3ccccc3)C(=O)OC2)cc1 [rofecoxib]
- COX-2 expression in the oral mucosa (COX-2): induced COX-2 expression

Compound: carboxyfluorescein [CF]
- permeability coefficient across ECV304 cell monolayers (ECV304 cell monolayers): ~ 5 µm/min
- permeability coefficient for CF (TR146 cell layers [4]; across cells treated with cytokines 48 h, two hours): 16.16 ± 13.05 µm/min
- permeability coefficient for CF (TR146 cell layers [4]; across cells treated with cytokines with ibuprofen 48 h, two hours): 16.75 ± 9.76 µm/min
- permeability coefficient for CF (TR146 cell layers [4]; across cells treated with ibuprofen 48 h, two hours): 12.83 ± 3.57 µm/min
- permeability coefficient for CF (TR146 cell layers [4]; across control cells, two hours after 48 h): 12.41 ± 5.15 µm/min
- permeability coefficient (TR146 cell layers [5]): 14.26 ± 7.14 µm/min
- permeability coefficient ([2]; human, 240 min): 4.63 ± 0.24 µm/min
